Results on 7 compounds are retold here after ChEMBL document CHEMBL6103592, “Discovery of novel thiazole-pleuromutilin derivatives with potent antibacterial activity” (Eur J Med Chem, 2025).

For orientation: IC50 means the concentration that inhibits the measured activity by half. In general, MIC refers to the least concentration at which growth counts as inhibited.

The test system of series [1] is Staphylococcus aureus. Briefly: Antibacterial efficacy against methicillin-resistant Staphylococcus aureus ATCC 43300 infected in cyclophosphamide-induced neutropenic systemic infection Kunming mouse model assessed as reduction in bacterial load in lung at 20 mg/kg, iv pretreated with cyclophosphamide for 1 hr followed by compound addition and measured after 5 days. The format is functional. The note with it: time 5 day.

For series [2], the system named is Staphylococcus aureus. Briefly: Antibacterial efficacy against methicillin-resistant Staphylococcus aureus ATCC 43300 infected in cyclophosphamide-induced neutropenic systemic infection Kunming mouse model assessed as reduction in bacterial load in liver at 20 mg/kg, iv pretreated with cyclophosphamide for 1 hr followed by compound addition and measured after 5 days. The format is functional. The conditions noted are these: time 5 day.

Series [3] relates to Staphylococcus aureus. Briefly: Antibacterial efficacy against methicillin-resistant Staphylococcus aureus ATCC 43300 infected in cyclophosphamide-induced neutropenic systemic infection Kunming mouse model assessed as reduction in bacterial load in kidney at 20 mg/kg, iv pretreated with cyclophosphamide for 1 hr followed by compound addition and measured after 5 days. The conditions noted are these: time 5.0 day. The format is functional, organism-based.

Series [4] has as its system Staphylococcus aureus. Briefly: Antibacterial efficacy against methicillin-resistant Staphylococcus aureus ATCC 43300 infected in cyclophosphamide-induced neutropenic systemic infection Kunming mouse model assessed as alveolar epithelial cell necrosis at 20 mg/kg, iv pretreated with cyclophosphamide for 1 hr followed by compound addition and measured after 5 days by light microscopic analysis. The format is functional, organism-based. The note with it: time 5.0 day.

A short description of series [5]: Cytotoxicity against human HEK293T cells assessed as survival rate at 200 micromol/L incubated for 24 hrs by CCK-8 assay relative to control. The format is toxicity, cell-based, HEK-293T. The conditions noted are these: dose 200 µmol/L, read-out: Survival. On the technique in general: Tetrazolium assays rely on reduction of a dye to a coloured formazan, in cell work by metabolically active cells.

For series [6], the system named is HepG2. Briefly: Cytotoxicity against human HepG2 cells assessed as survival rate at 200 micromol/L incubated for 24 hrs by CCK-8 assay relative to control. The format is functional. The conditions noted are these: HepG2, 24 h, dose 200 µmol/L, read-out: Survival.
The nature of series [7]: Cytotoxicity against human HEK293T cells assessed as survival rate incubated for 24 hrs by CCK-8 assay. The format is toxicity, cell-based, HEK-293T.
For series [8], the system named is HepG2. Briefly: Cytotoxicity against human HepG2 cells assessed as survival rate incubated for 24 hrs by CCK-8 assay. The format is functional, cell-based. The note with it: HepG2, 24 h.
Series [9] relates to Staphylococcus aureus. Put plainly: Antibacterial activity against methicillin-resistant Staphylococcus aureus ATCC 43300 assessed as inhibition of visible bacterial growth incubated for 24 hrs by CLSI based broth microdilution method. The format is functional.
Series [10] has as its system Staphylococcus aureus. Briefly: Antibacterial activity against Staphylococcus aureus ATCC 25923 assessed as inhibition of visible bacterial growth incubated for 24 hrs by CLSI based broth microdilution method. The format is functional. Background: In broth dilution the organism is exposed to a series of concentrations in liquid medium.
The next series relates to Enterococcus faecalis. Briefly: Antibacterial activity against Enterococcus faecalis assessed as inhibition of visible bacterial growth incubated for 24 hrs by CLSI based broth microdilution method. The format is functional.
The next series has as its system Escherichia coli. Briefly: Antibacterial activity against Escherichia coli ATCC 25922 assessed as inhibition of visible bacterial growth incubated for 24 hrs by CLSI based broth microdilution method. The format is functional.
For another series, the system named is Streptococcus agalactiae. Put plainly: Antibacterial activity against Streptococcus agalactiae assessed as inhibition of visible bacterial growth incubated for 24 hrs by CLSI based broth microdilution method. The format is functional.
A further series has as its system Mycoplasma. Put plainly: Antibacterial activity against Mycoplasma F3 assessed as inhibition of visible bacterial growth incubated for 24 hrs by CLSI based broth microdilution method. The format is functional.
For series [11], the system named is Staphylococcus aureus. Briefly: Bactericidal activity against methicillin-resistant Staphylococcus aureus ATCC 43300 at 1 times MIC incubated upto 24 hrs by time-kill assay. The format is functional, organism-based.
Series [12] has as its system Staphylococcus aureus. Briefly: Bactericidal activity against methicillin-resistant Staphylococcus aureus ATCC 43300 assessed as increase in colony forming unit count at 1 times MIC incubated after 8 hrs by time-kill assay. The format is functional, organism-based.
Series [13] deals with Staphylococcus aureus. Briefly: Antibacterial activity against methicillin-resistant Staphylococcus aureus ATCC 43300 assessed as post antibiotic effect at 1 times MIC measured after 1 hr. The format is functional.
Series [14] deals with Staphylococcus aureus. Briefly: Antibacterial activity against methicillin-resistant Staphylococcus aureus ATCC 43300 assessed as post antibiotic effect at 2 times MIC measured after 1 hr. The format is functional.
For series [15], the system named is Staphylococcus aureus. Put plainly: Antibacterial activity against methicillin-resistant Staphylococcus aureus ATCC 43300 assessed as post antibiotic effect at 4 times MIC measured after 1 hr. The format is functional.
The test system of series [16] is Staphylococcus aureus. Put plainly: Antibacterial activity against methicillin-resistant Staphylococcus aureus ATCC 43300 assessed as post antibiotic effect at 8 times MIC measured after 1 hr. The format is functional.
Series [17] deals with Staphylococcus aureus. Put plainly: Drug resistance, ratio of MIC for methicillin-resistant Staphylococcus aureus ATCC 43300 after 21 passages to MIC for methicillin-resistant Staphylococcus aureus ATCC 43300 during first exposure. The format is functional.
The subject of series [18] is Staphylococcus aureus. Briefly: Antibacterial activity against methicillin resistant Staphylococcus aureus. The format is functional.
Series [19] deals with Staphylococcus aureus. Briefly: Antibacterial activity against methicillin-resistant Staphylococcus aureus ATCC 43300 assessed as reduction in bacterial proteins level at 0.5 to 2 microg/ml measured for 4 hrs. The format is functional, organism-based. The note with it: dose 0.5-2 µg/ml.

Converted amounts (≈) assume the structure as drawn. The source made the active and inactive calls. The rule behind the calls is not given here. Some results are limits rather than exact numbers.

Consider `C=C[C@]1(C)C[C@@H](OC(=O)CSC(C)(C)CNC(=O)[C@H](N)C(C)C)[C@]2(C)[C@H](C)CC[C@]3(CCC(=O)[C@H]32)[C@@H](C)[C@@H]1O` [VALNEMULIN], for which the Activity in the series with Staphylococcus aureus [1] is 0.98 log10CFU; in the series on Staphylococcus aureus [2], 0.71 log10CFU. The result in the series with Staphylococcus aureus [3] and with Staphylococcus aureus [4] was inactive. In series [5], the viability at 24 h, 200 µM was 16%. For the same compound, in the series with HepG2 [6], the viability at 200 µM was determined as 12%. Moreover, the 50% inhibitory concentration (IC50) at 24 h in series [7] worked out at 52 µM. Further, the half-inhibitory concentration (IC50) in the series with HepG2 [8] was 102 µM.

Regarding `C=C[C@]1(C)C[C@@H](OC(=O)CSc2nc(OC(=O)C3CC3)cs2)[C@]2(C)[C@H](C)CC[C@]3(CCC(=O)[C@H]32)[C@@H](C)[C@@H]1O`, the minimal inhibitory concentration (MIC) was 0.5 µg/mL (≈ 0.89 µM) in the series with Staphylococcus aureus [9]; 1 µg/mL (≈ 1.78 µM) in the series on Staphylococcus aureus [10]; over 32 µg/mL in the series on Enterococcus faecalis; over 32 µg/mL with Escherichia coli; 0.063 µg/mL (≈ 0.112 µM) in the series with Streptococcus agalactiae; 0.25 µg/mL (≈ 0.445 µM) in the series on Mycoplasma.

In the case of `C=C[C@]1(C)C[C@@H](OC(=O)CSc2nc(OC(=O)c3ccc(Cl)cc3)cs2)[C@]2(C)[C@H](C)CC[C@]3(CCC(=O)[C@H]32)[C@@H](C)[C@@H]1O`, the minimal inhibitory concentration (MIC) is 0.5 µg/mL (≈ 0.791 µM) in the series on Staphylococcus aureus [9]; 0.5 µg/mL (≈ 0.791 µM) in the series on Staphylococcus aureus [10]; over 32 µg/mL in the series with Enterococcus faecalis; over 32 µg/mL in the series on Escherichia coli; 0.063 µg/mL (≈ 0.0996 µM) in the series on Streptococcus agalactiae; 0.25 µg/mL (≈ 0.395 µM) in the series with Mycoplasma.

Take `C=C[C@]1(C)C[C@@H](OC(=O)CSc2nc(OC(=O)c3ccc(C)cc3)cs2)[C@]2(C)[C@H](C)CC[C@]3(CCC(=O)[C@H]32)[C@@H](C)[C@@H]1O`: the MIC in the series on Staphylococcus aureus [9] was 1 µg/mL (≈ 1.63 µM); in the series on Staphylococcus aureus [10], 0.25 µg/mL (≈ 0.409 µM); with Enterococcus faecalis, over 32 µg/mL; with Escherichia coli, over 32 µg/mL; in the series on Streptococcus agalactiae, 0.063 µg/mL (≈ 0.103 µM); with Mycoplasma it was 0.5 µg/mL (≈ 0.817 µM).

Turning to `C=C[C@]1(C)C[C@@H](OC(=O)CSCCN(CC)CC)[C@]2(C)[C@H](C)CC[C@]3(CCC(=O)[C@H]32)[C@@H](C)[C@@H]1O` [TIAMULIN], the MIC with Staphylococcus aureus [9] was 0.25 µg/mL (≈ 0.506 µM); in the series on Staphylococcus aureus [10], 0.25 µg/mL (≈ 0.506 µM); with Enterococcus faecalis, over 32 µg/mL; with Escherichia coli it was over 32 µg/mL; in the series on Streptococcus agalactiae, 0.125 µg/mL (≈ 0.253 µM); in the series on Mycoplasma, 0.008 µg/mL (≈ 0.0162 µM). For the same compound, the minimum inhibitory concentration (MIC) with Staphylococcus aureus [18] came to 0.5 µg/mL (≈ 1.01 µM). The result with Staphylococcus aureus [11], in the series on Staphylococcus aureus [12], in the series on Staphylococcus aureus [19] and in the series with Staphylococcus aureus [4] was Active. Moreover, the PAE with Staphylococcus aureus [13] was determined as 0.42 h; in the series with Staphylococcus aureus [14], 0.91 h; in the series on Staphylococcus aureus [15], 1.54 h; with Staphylococcus aureus [16], 2.2 h. Further, in the series with Staphylococcus aureus [17], the Ratio came to 64. Also, in the series with Staphylococcus aureus [3], the outcome was inactive.

In the case of `C=C[C@]1(C)C[C@@H](OC(=O)CSc2nc(OC(=O)c3ccccc3Cl)cs2)[C@]2(C)[C@H](C)CC[C@]3(CCC(=O)[C@H]32)[C@@H](C)[C@@H]1O`, the MIC was 0.5 µg/mL (≈ 0.791 µM) with Staphylococcus aureus [9]; 1 µg/mL (≈ 1.58 µM) in the series on Staphylococcus aureus [10]; over 32 µg/mL in the series with Enterococcus faecalis; over 32 µg/mL in the series with Escherichia coli; 0.125 µg/mL (≈ 0.198 µM) in the series with Streptococcus agalactiae; 0.25 µg/mL (≈ 0.395 µM) in the series on Mycoplasma.

On to `C=C[C@]1(C)C[C@@H](OC(=O)CSc2nc(OC(=O)C3CCCCC3)cs2)[C@]2(C)[C@H](C)CC[C@]3(CCC(=O)[C@H]32)[C@@H](C)[C@@H]1O`, for which the minimum inhibitory concentration (MIC) with Staphylococcus aureus [9] is 1 µg/mL (≈ 1.66 µM); in the series with Staphylococcus aureus [10], 1 µg/mL (≈ 1.66 µM); in the series on Enterococcus faecalis it was over 32 µg/mL; in the series with Escherichia coli it was over 32 µg/mL; with Streptococcus agalactiae, 0.125 µg/mL (≈ 0.207 µM); in the series with Mycoplasma, 0.5 µg/mL (≈ 0.828 µM).
